Reference: the NIST ThermoML archive (doi:10.1016/j.tca.2015.03.016)
Several values for one entry are separate records, joined by “and”; a condition that tells them apart may be missing. Equal values may be shown once. Numbers after ± are expanded uncertainties.

Details: Liquid, Transpiration method

C1CCC(NC2CCCCC2)CC1 [N-cyclohexylcyclohexanamine]
Details	vapor or sublimation pressure [kPa]
295.4 K	0.00322 ± 0.00026
298.3 K	0.00416 ± 0.00031
301.2 K	0.0055 ± 0.00039
304.2 K	0.00706 ± 0.00048
307.2 K	0.00889 ± 0.00061
310.2 K	0.01123 ± 0.00076
313.2 K	0.01433 ± 0.00094
315.1 K	0.0165 ± 0.0011
318.3 K	0.02093 ± 0.0014
321.2 K	0.02576 ± 0.0017
324.2 K	0.03192 ± 0.002
327.2 K	0.03941 ± 0.0025
330.2 K	0.0492 ± 0.0031
333.2 K	0.05903 ± 0.0037

CN(C)C1CCCCC1 [N,N-dimethylcyclohexylamine]
Details	vapor or sublimation pressure
275.3 K	0.0902 ± 0.0058 kPa and 0.0943 ± 0.006 kPa
275.4 K	0.0923 ± 0.0058 kPa
278.3 K	0.1123 ± 0.0071 kPa
281.2 K	0.1456 ± 0.0093 kPa
284.2 K	0.1766 ± 0.011 kPa
287.2 K	0.2125 ± 0.013 kPa
290.3 K	0.2601 ± 0.016 kPa
293.2 K	0.3186 ± 0.02 kPa
296.2 K	0.383 ± 0.024 kPa
299.2 K	0.472 ± 0.029 kPa
302.2 K	0.5659 ± 0.035 kPa
305.3 K	0.6634 ± 0.041 kPa
308.3 K	0.8071 ± 0.05 kPa
311.2 K	0.912 ± 0.057 kPa
314.3 K	1.106 ± 0.069 kPa

NC1CCCCC1 [cyclohexylamine]
Details	vapor or sublimation pressure [kPa]
283.2 K	0.4635 ± 0.029
286.2 K	0.5583 ± 0.035
290.1 K	0.7237 ± 0.045
293.3 K	0.9124 ± 0.057
296.2 K	1.06 ± 0.066
298.1 K	1.182 ± 0.074
299.3 K	1.28 ± 0.08
302.3 K	1.541 ± 0.096
305.3 K	1.788 ± 0.11
308.3 K	2.115 ± 0.13

CNC1CCCCC1 [N-methylcyclohexylamine]
Details	vapor or sublimation pressure [kPa]
275.2 K	0.1412 ± 0.0091
278.2 K	0.1788 ± 0.011
281.2 K	0.2211 ± 0.014
284.2 K	0.2727 ± 0.017
287.2 K	0.3362 ± 0.021
290.4 K	0.4224 ± 0.026
293.2 K	0.4889 ± 0.031
296.2 K	0.606 ± 0.038
299.2 K	0.7392 ± 0.046
302.2 K	0.8882 ± 0.055
305.2 K	1.044 ± 0.065
308.3 K	1.278 ± 0.08
311.2 K	1.51 ± 0.094
314.2 K	1.784 ± 0.11
